Measurements taken from patent US3949075A, “Anti-microbial compounds of 2', 4' substituted anilides of substituted nitrosalicylic acid for quadruped animals” (Ferro Corporation, priority 1974, dated 1976).
In brackets after ≈: the same amount, converted by molar mass. Like-named read-outs stand apart in the source and are kept apart here.

Experiments:
[1] = Tolerance / toxicity in sheep; format: in vivo; parameters: key to Tolerance at 100 mg/kg / Tolerance at 50 mg/kg: "toxic" refers to death of sheep resulting from the use of the indicated compound at the indicated dosage; key to Tolerance: Tol.: tolerated; Tox.: toxic; Sym.: symptoms of toxic reaction; conditions: in vivo, Table 1, read-out: Tolerance, highest test dosage at which the sheep developed no toxic symptoms
Protocol: (§1) The results of tests on sheep in a manner described, supra, using compounds of the present invention are given in Table 1, Examples 5 through 13. The numbers in the column headed "Haemonchus (15 mg/kg)" refer to the percent of parasites destroyed or expelled when the indicated compound was introduced into the rumen of sheep at a dosage of 15 milligrams per kilogram of body weight. The values under "Tolerance (mg/kg)" refer to the highest test dosage in the milligrams of anthelmintic per kilogram of body weight at which the sheep developed no toxic symptoms. "Tol." is an abbreviation for "tolerated". The symbols R1 and R2 refer to those of Formula I in these and other following examples.
(§2) The importance of the 2',4' substitution on the anilide moiety of Formula I is illustrated by the case of the dichloro substitution as summarized in Table III. […] This has been mentioned briefly hereinabove. As used herein, "toxic" refers to death of sheep resulting from the use of the indicated compound at the indicated dosage.
(§3) The data of the tables were generated using procedures previously described. The compounds tested are disubstituted and, except for Example 50 which is dibromo, are dichloro. Where the position for the substituents is other than 2' and 4', it is indicated. Under the indicated microorganisms, the values given in this and the following tables, should be read as: percentage of microorganism killed/dose in milligrams per kilogram of body weight. Under "Tolerance", the term "Tol." means "tolerated", "Tox." means "toxic", and "Sym." means "symptoms of toxic reaction", all at the dosage value which follows. It will be appreciated that there is no sharp toxicity end point in determining toxicity to living sheep.

sheep = assay: Tolerance / toxicity in sheep; format: in vivo; parameters: key to Tolerance at 100 mg/kg / Tolerance at 50 mg/kg: "toxic" refers to death of sheep resulting from the use of the indicated compound at the indicated dosage; key to Tolerance: Tol.: tolerated; Tox.: toxic; Sym.: symptoms of toxic reaction; conditions: for Tolerance at 50 mg/kg / Tolerance at 100 mg/kg: Tables III and IV
Protocol: as §1, §2, §3

[2] = system: Haemonchus and Fasciola hepatica; assay: Dual activity against Haemonchus and Fasciola in sheep and therapeutic ratio; format: in vivo; conditions: sheep; for dual activity relative to other isomers, in words: Table IX, listed as methyl 2'
Haemonchus contortus = assay: Percent of Haemonchus destroyed or expelled in infected sheep (egg count after treatment); format: in vivo, Haemonchus contortus (in sheep); conditions: for inhibition in vivo at 15 mg/kg / inhibition in vivo at 2 mg/kg / inhibition in vivo at 5 mg/kg: Haemonchus contortus; for Effectiveness at 15 mg/kg against Haemonchus: Table VI; for effective in killing or expelling Haemonchus: dose not given
Protocol: Two groups of sheep were used in the tests. One group was used as a non-medicated control, while the other group was treated with the compound under investigation. Helminth-free young lambs were infected with about 10,000 filariform larvae of Haemonchus contortus. In three weeks when the infection became apparent, egg counts were made to determine the density of the worm burden.
The egg count was carried out using the following modified Stoll method. Three grams of sheep feces were taken rectally from each animal and placed in a Stoll flask. To each flask, tap water was added to the top line. The fecal pellets were too hard to break down, the flasks were closed with rubber stoppers and kept in the refrigerator for several hours. The flasks were thoroughly shaken and a 1 ml. sample was drawn from the middle using a wide mouth pipette. This 1 ml. sample was transferred to an 8 ml. plastic tube, to which enough saturated sodium chloride solution was added to reach the rim. The tubes were then centrifuged for 10 minutes at 1500 r.p.m. Then sodium chloride solution was added with a medicine dropper forming a concave miniscus. A cover glass was carefully added and the tubes were kept in a refrigerator for ten to twenty minutes. During that period, the nematode ova flowed upward and adhered to the bottom of the cover glass slip. At the end of the 20-minute period, the cover slip was carefully detached from the miniscus and transferred to a microscopic slide. The ova were then counted under a microscope equipped with 10X ocular and 10X objective lens. Each ovum under the microscope represented 20 ova in the sample.
Animals with sufficiently high egg counts were taken out of the pool and housed in experimental pens. Since the salicylanilides of the present invention are water insoluble, the compounds were first ground using a mortar and pestle and then were placed in a carboxymethyl cellulose solution. The particles were further micronized ultrasonically. The compound was then administered to two or three animals by Oesophageal gavage. Control, untreated animals, received only the carboxymethyl cellulose solution in a similar manner. On the sixth and seventh day after treatment, fecal pellets were taken from the rectum of the control as well as the treated animals and egg counts were made.
as §1, §3

[3] = system: liver flukes of the genus Fasciola; assay: Utility against liver flukes of the genus Fasciola in sheep (oral); format: in vivo; conditions: for effect against (mature) liver flukes: oral, 5 mg/kg, within three days
Protocol: (§4) Test for activity against liver flukes were conducted as follows:
(§5) Eggs of Fasciola hepatica were collected from the bile of donor sheep. The eggs were embryonated and snails were infected (the genus Lymnaea serves as intermediate host) to produce Metacercariae which are the infective forms for sheep. Each sheep was infected with 250 metacercariae intraruminally. When the infection became patent in ca. 80 days, egg counts were carried out to determine the degree of worm burden. The liver was processed to recover F. hepatica in the untreated and treated sheep.
The compounds of this invention also have utility against liver flukes.

Fasciola hepatica = assay: Test for activity against liver flukes, Fasciola hepatica, in infected sheep; format: in vivo
Protocol: as §4, §5, §3

Alternaria solani = assay: Reducing infestation on tomatoes, early blight; format: in vivo, Alternaria solani (on tomatoes)
Phytophthora infestans = format: in vivo, Phytophthora infestans (on tomatoes)
Staphylococcus aureaus = assay: Agar plate minimum inhibitory concentration; format: cell-based; conditions: 48 h, read-out: Minimum Inhibitory Concentration
Protocol: (§6) The following procedure for antibacterial evaluation was used. Test compounds were dissolved in a suitable solvent (typically dimethyl sulfoxide or acetone) and incorporated in a nutrient agar at various concentrations. The plates were then streaked with cultures of the appropriate bacteria. The inoculum contained about 8 × 10^8 organisms per milliliter. After incubation for 48 hours at 37°C., the plates were examined for evidence of growth of the microorganisms. The minimum concentration necessary for complete inhibition of growth was noted.

Salmonella choleresuis = assay: Agar plate minimum inhibitory concentration; format: cell-based; conditions: 48 h, read-out: Minimum Inhibitory Concentration
Protocol: as §6

Haemophilus gallinarum = assay: Agar plate minimum inhibitory concentration; format: cell-based; conditions: Avibacterium paragallinarum, nutrient agar, 48 hours at 37°C., complete inhibition
Protocol: as §6

Escherichia coli = assay: Agar plate minimum inhibitory concentration; format: cell-based; conditions: nutrient agar, 48 hours at 37°C., complete inhibition
Protocol: as §6

Streptococcus foecalis = assay: Agar plate minimum inhibitory concentration; format: cell-based; conditions: 48 h, read-out: Minimum Inhibitory Concentration
Protocol: as §6

Salmonella gallinarum = assay: Agar plate minimum inhibitory concentration; format: cell-based; conditions: Salmonella enterica, nutrient agar, 48 hours at 37°C., complete inhibition
Protocol: as §6

[4] = system: Trichophyton mentagrophytes; assay: Inhibition of fungus on Sabouraud agar; format: cell-based; conditions: 120 hours at 25°C., read-out: inhibitory concentration
Protocol: as §6
For testing against the fungus Trichophyton the same procedure was used, except that the test medium was Sabouraud agar, and the plates were cultured for 120 hours at 25°C. before evaluation for evidence of growth. The inoculum added to the culture media contained about 5 × 10^6 spores in a water suspension containing 0.1% peptone.

[5] = iv, sheep, 15 mg/kg, Tables III and IV, read-out: Effectiveness (%) at 15 mg/kg
[6] = sheep, Tables VIII-XI, read-out: Haemonchus, percentage of microorganism killed
[7] = sheep, 5 mg/kg, Tables VIII-XI, read-out: Haemonchus, percentage of microorganism killed
[8] = sheep, 5 mg/kg, Tables III and IV
[9] = sheep, into rumen, 15 mg/kg, Table 1
[10] = Fasciola hepatica, read-out: Fasciola hepatica, percentage of microorganism killed
[11] = Fasciola hepatica, sheep, 2 mg/kg, Tables VIII-XI, read-out: Fasciola hepatica, percentage of microorganism killed
[12] = sheep, 15 mg/kg, Table V, read-out: Effectiveness at 15 mg/kg against Haemonchus
[13] = sheep, 15 mg/kg, Tables VIII-XI, read-out: Haemonchus, percentage of microorganism killed
[14] = Fasciola hepatica, sheep, 5 mg/kg, Tables VIII-XI, read-out: Fasciola hepatica, percentage of microorganism killed
[15] = Fasciola hepatica, sheep, Tables VIII-XI, read-out: Fasciola hepatica, percentage of microorganism killed

SMILES	NOAEL [1] [mg/kg]	Tolerance (sheep; 50 mg./kg., Tables VIII-X)	Tolerance at 50 mg/kg (sheep)	Tolerance (sheep; 100 mg./kg., Tables VIII, IX)	Tolerance at 100 mg/kg (sheep)	inhibition in vivo at 15 mg/kg (Haemonchus contortus; [5]) [%]	inhibition in vivo at 2 mg/kg (Haemonchus contortus; [6]) [%]	inhibition in vivo at 5 mg/kg (Haemonchus contortus; [7]) [%]	Effectiveness (%) at 5 mg/kg (Haemonchus contortus; [8]) [%]	Effectiveness at 15 mg/kg against Haemonchus (Haemonchus contortus; sheep, 15 mg/kg) [%]	effective in killing or expelling Haemonchus (Haemonchus contortus; sheep) [%]	Haemonchus (2 mg/kg), percent of parasites destroyed or expelled (Haemonchus contortus; sheep, into rumen, Table 1) [%]	Haemonchus (15 mg/kg), percent of parasites destroyed or expelled (Haemonchus contortus; [9]) [%]	effect against (mature) liver flukes [3]	inhibition in vivo at 2 mg/kg (Fasciola hepatica; [11]) [%]	inhibition in vivo at 15 mg/kg (Haemonchus contortus; [12]) [%]	inhibition in vivo at 15 mg/kg (Haemonchus contortus; [13]) [%]	inhibition in vivo at 5 mg/kg (Fasciola hepatica; [14]) [%]	inhibition in vivo at 15 mg/kg (Fasciola hepatica; [15]) [%]	other results
Cc1c([N+](=O)[O-])cc(C(C)(C)C)c(O)c1C(=O)Nc1ccc(Cl)cc1Cl [Example 5, 3-tert. butyl-2', 4'-dichloro-6-methyl-5-nitrosalicylanilide]	50 to 100	Tol.	nontoxic	Sym.	toxic	100	14	100	100	100	100	14	100	completely destroyed all flukes	99	–	–	–	–	dual activity against both Haemonchus and Fasciola ([2]; 5 mg./kg.): 100%; inhibition in vivo at 15 mg/kg (Haemonchus contortus; read-out: Haemonchus, percentage of microorganism killed, sheep, 15 mg/kg, Tables VIII-XI): 100%; activity at 5 mg./kg. (Haemonchus contortus; sheep, 5 mg/kg): 100%; inhibition in vivo at 5 mg/kg (Fasciola hepatica; [10]): 100%; inhibition in vivo at 1 mg/kg (Fasciola hepatica; Fasciola hepatica, sheep, 1 mg/kg, Tables VIII and X, read-out: Fasciola hepatica, percentage of microorganism killed): 44%; dose ratio: times less than the dose at which the 2',5' dichloro compound had no activity (Fasciola) (Fasciola hepatica; sheep): 2.5 times; effective against Fasciola (Fasciola hepatica; sheep, dose 2.5 times less than that at which the 2',5' dichloro compound had no activity): 99%
Cc1c([N+](=O)[O-])cc(C(C)(C)C)c(O)c1C(=O)Nc1ccc(Br)cc1 [Example 8, 4'-bromo-3-tert. butyl-6-methyl-5-nitrosalicylanilide]	–	–	–	–	–	–	–	–	–	–	–	–	61	–	–	61	61	0	100	reducing infestation on tomatoes, early blight (Alternaria solani): effective in reducing infestation; reducing infestation on tomatoes, late blight (Phytophthora infestans): effective in reducing infestation; MIC (Staphylococcus aureaus): 1 µg/mL (≈ 2.46 µM); MIC (Salmonella choleresuis): 64 µg/mL (≈ 157 µM); MIC (Haemophilus gallinarum): 8 µg/mL (≈ 19.6 µM); MIC (Escherichia coli): 64 µg/mL (≈ 157 µM); MIC (Streptococcus foecalis): 64 µg/mL (≈ 157 µM); MIC (Salmonella gallinarum): 64 µg/mL (≈ 157 µM)
Cc1cc(Cl)ccc1NC(=O)c1c(C)c([N+](=O)[O-])cc(C(C)(C)C)c1O [Example 6, 3-tert. butyl-4'-chloro-2', 6-dimethyl-5-nitrosalicylanilide]	50 to 100	Sym.	non toxic	Tox.	toxic	100	67	–	95	100	100	67	100	The same effects against mature flukes	–	–	100	100	–	Tolerance (sheep; 25 mg./kg., Tables IX, X): Tol.; dual activity relative to other isomers, in words ([2]; chloro 4' compound): much greater dual activity; dual activity relative to other isomers, in words ([2]; chloro 4' isomer): very active at doses well below those at which other isomers are inactive; inhibition in vivo at 5 mg/kg (Haemonchus contortus; read-out: Haemonchus, percentage of microorganism killed, sheep, 5 mg/kg, Tables VIII-XI): 99%; activity against Haemonchus relative to other isomers, in words (Haemonchus contortus; sheep): greater activity against Haemonchus; inhibition in vivo at 2 mg/kg (Fasciola hepatica; [10]): 0%
Cc1c([N+](=O)[O-])cc(C(C)(C)C)c(O)c1C(=O)Nc1ccc(Cl)cc1 [Example 7, 3-tert. butyl-4'-chloro-6-methyl-5-nitrosalicylanilide]	15 to 50	–	–	–	–	–	0	65	–	–	–	0	81	–	0	81	81	50	100	MIC [4]: 1 µg/mL (≈ 2.76 µM); Haemonchus (5 mg/kg), percent of parasites destroyed or expelled (Haemonchus contortus; sheep, into rumen, 5 mg/kg, Table 1): 65%; effect against liver flukes ([3]; 15 mg/kg): efficacious
